The values that follow come from patent US20070026402A1, “Genetic marker of response to atypical antipsychotics and antidepressants methods for use thereof” (priority 2003, published 2007).

The subject of data set [1] is PTSD patients. Description: General Health Questionnaire-28 (GHQ) outcome of paroxetine treatment in PTSD. The following applies: for GHQ total score, baseline vs treatment: 8 weeks. The class given is in vivo, human. The text has this:
Sixty-five unrelated male Caucasian patients with the diagnosis of PTSD were recruited for study. All subjects were Vietnam combat veterans who had served in the Australian armed forces. None were being treated with psychotropic medication. […] confirmed by all patients exceeding the clinical cut-off score of 94 on the Mississippi Scale for combat-related posttraumatic stress disorder (Zatzick et al., 1997). The validity and reliability of the Mississippi scale ate well established in veterans (Keane et al., 1988). Patients then underwent clinical history taking by a psychiatrist or by a clinical nurse (EP). Demographic data and ethnic background were also obtained. […] The General Health Questionnaire-28 (GHQ) was administered at baseline (0-7 days on paroxetine) and at the end of treatment (8 weeks after commencement on paroxetine). This questionnaire measures four psychopathological factors particularly relevant to PTSD and its comorbid psychiatric conditions: somatic concerns (GHQ1), anxiety/insomnia (GHQ2), social dysfunction (GHQ3) and depression (GHQ4). The GHQ has been widely validated internationally as a means of detecting psychiatric […] sensitive to change (Ormel et al., 1989). The GHQ has utility as a follow-up measure of veteran mental health following exposure to combat (Deahl et al., 1994) and is sensitive to changes in combat-related PTSD symptoms (Ward, 1997). Information coded from the interviews, GHQ and genotyping results were entered into a computer database. Nominal data were analyzed by Yates corrected X^2 test and continuous data, with repeated measures, were analyzed by paired t-test or by analysis of variance. P values≦0.05 were considered statistically significant.

For data set [2], the system named is PTSD patients. Description: Discontinuation and adverse events during paroxetine treatment in PTSD. The class given is in vivo, human. The note with it: for Subjects with adverse events relating to anxiety, insomnia, headache or tremor / Subjects with erectile dysfunction, decreased libido or delayed ejaculation: group that discontinued. The method, then:
Sixty-five unrelated male Caucasian patients with the diagnosis of PTSD were recruited for study. All subjects were Vietnam combat veterans who had served in the Australian armed forces. None were being treated with psychotropic medication.
After initial assessment, patients were medically examined and then were started on 20 mg/day of paroxetine for the first two weeks followed by a 40 mg/day dose for the remaining six weeks.
Patient assessments were conducted blind to their DRD2 allelic status. In addition to their standard treatment, patients were monitored twice for adverse events. Drug compliance was checked by pill count. All participants provided written informed consent and were able to terminate treatment without prejudice. However, those terminating participation were asked to provide reasons for their withdrawal. Institutional ethics approval was obtained from the Greenslopes Private Hospital.

Another data set relates to PTSD. The note with it: compared to 32% with placebo; cited from earlier work.

“Also recorded” adds a separate entry of the source.

In the case of `CN1CCN(C2=Nc3cc(Cl)ccc3Nc3ccccc32)CC1` [Clozapine], the “Number of patients exceeding hyperprolactinemia cut-off levels” value in the data set with Serum prolactin (Clozapine and Olanzapine patients combined) was 7. Besides, the “Hyperprolactinemic patients as share of the sample” value with Serum prolactin (Clozapine and Olanzapine patients combined, sample of 144) is listed as 5%. Moreover, the “Prolactin levels in A1+ compared to A1− allelic patients” value in the data set with Serum prolactin (P=0.04) is recorded as “more than two fold higher”.

On to `Fc1ccc([C@@H]2CCNC[C@H]2COc2ccc3c(c2)OCO3)cc1` [paroxetine], for which the “GHQ3 (social dysfunction) subscale score over the course of treatment” value with PTSD patients [1] (A1+ allelic subjects) was “significant improvement”; with PTSD patients [1] (A1− allelic subjects), “no such improvement”; in the data set on PTSD patients [1] (total patient group), “significant improvement”. Besides, the “GHQ total score, baseline vs treatment” value in the data set with PTSD patients [1] (A1− patients) was “no significant improvement; also recorded: did not”; in the data set on PTSD patients [1] (total 45 patients), “significant improvement”. In addition, the “GHQ1 (somatic concerns) subscale score over the course of treatment” value in the data set with PTSD patients [1] (total patient group) is given as “not significantly reduced”. For the same molecule, in the data set on PTSD patients [1] (total patient group), the “GHQ2 (anxiety/insomnia) subscale score over the course of treatment” value is recorded as “significantly reduced”. Moreover, in the data set with PTSD patients [1] (total patient group), the “GHQ4 (depression) subscale score during treatment” value is listed as “significant improvement”. Moreover, the “Number of patients who discontinued treatment” value in the data set on PTSD patients [2] (A1+ (of 26)) is listed as 4; with PTSD patients [2] (A1− (of 39)), 16; in the data set with PTSD patients [2] (of the 65 patients who entered the study), 20. Besides, the “Subjects with adverse events relating to anxiety, insomnia, headache or tremor” value in the data set on PTSD patients [2] (A1+) worked out at 2; in the data set with PTSD patients [2] (A1−), 11. The results for the “Subjects with erectile dysfunction, decreased libido or delayed ejaculation” value in the data set with PTSD patients [2] (A1+) and with PTSD patients [2] (A1−) were 2 and 5, respectively.

With `CN[C@H]1CC[C@@H](c2ccc(Cl)c(Cl)c2)c2ccccc21` [sertraline], the Responder rate in the data set with PTSD is 53%.
